Test results reported in patent publication US8754212B2, “Process for the preparation of stable, amorphous calcium salt of (6S)-N(5)-methyl-5,6,7,8-tetrahydrofolic acid” (Cerbios-Pharma S.A., priority 2007, dated 2014).
Like-named read-outs stand apart in the source and are kept apart here.

Key:
[1] = stored at 25° C. under vacuum [2 mbar]
[2] = stored at 4° C.
Description: For the determination of the purity and of the ratio of the diastereoisomers a sample of the compound of formula IV was washed with 94% (v/v) aqueous ethanol and was then dried under reduced pressure.

| Structure (SMILES) | HPLC assay (%) ([1]; time 0 months) | HPLC purity (%) ([1]; time 0 months) | HPLC assay (%) ([1]; time 1 month) | HPLC purity (%) ([1]; time 1 month) | HPLC assay (%) ([1]; time 2 months) | HPLC purity (%) ([1]; time 2 months) | HPLC assay (%) ([1]; time 3 months) | HPLC purity (%) ([1]; time 3 months) | HPLC assay (%) ([1]; time 6 months) | HPLC purity (%) ([1]; time 6 months) | HPLC assay (%) ([1]; time 9 months) | HPLC purity (%) ([1]; time 9 months) | HPLC purity (%) ([2]; time 0 months) | HPLC purity (%) ([2]; time 6 months) |
| --- | --- | --- | --- | --- | --- | --- | --- | --- | --- | --- | --- | --- | --- | --- |
| CN1c2c(nc(N)[nH]c2=O)NC[C@@H]1CNc1ccc(C(=O)NC(CCC(=O)[O-])C(=O)[O-])cc1.[Ca+2] (stereo partly drawn) [formula V, calcium salt of (6S)—N(5)-methyl-5,6,7,8-tetrahydrofolic acid] | 99.0 | 98.7 | 98.8 | 98.7 | 99.8 | 98.9 | 100.2 | 98.8 | 99.9 | 98.5 | 100.7 | 98.9 |  |  |
| CN1c2c(nc(N)[nH]c2=O)NC[C@@H]1CNc1ccc(C(=O)N[C@@H](CCC(=O)O)C(=O)O)cc1 [formula IV, (6S)—N(5)-methyl-5,6,7,8-tetrahydrofolic acid] |  |  |  |  |  |  |  |  |  |  |  |  | 96.45 | 96.66 |
